O=C(NNC(=S)Nc1ccc(Cl)cc1)c1ccncc1
solubility (mole fraction)
Conditions	298.15 K	308.15 K	318.15 K	328.15 K	338.15 K
in transcutol	0.0423	0.0468	0.0514	0.0565	0.0607
in water	5.17e-07	5.93e-07	7.05e-07	8.28e-07	9.75e-07

— BigSolDB 2.1
